Measurements from patent publication US12280040B2, “Compositions and methods of a dihydroisoxazole compound that reduces ectoparasite infestations on fish” (EVAH Atlantic Inc., priority 2023, dated 2025).

Test system: Lepeophtheirus salmonis
Assay: Efficacy of medicated feed against an existing experimental sea lice infestation on Atlantic salmon post-smolts (Example 1)
Type: in vivo
Protocol: A randomized, blinded, parallel-group, negative-controlled study was conducted in which, the active ingredient was administered in medicated feed to laboratory-maintained Atlantic salmon (Salmo salar) post-smolts in seawater. Smolts were experimentally infested with sea lice (Lepeophtheirus salmonis) under laboratory conditions prior to being fed the medicated diet to assess the efficacy of the active ingredient in reducing the number of sea lice/fish.
Healthy Atlantic salmon post-smolts (n=750) were selected for enrollment and distributed sequentially across ten (10) study tanks. Fish were weighed individually during the allocation of fish to tanks on study day (SD)-95, with SD 0 serving as the first day of treatment. Fish were weighed on SD −2, +8, +18, +22, and +30. The fish weights on SD −2 were used to estimate the average weight of all fish and used to determine the feeding amount during the treatment period (SD 0−+6). A target of total of 10 fish/tank were lethally sampled, lice-counted, and weight and length were measured. The mean weight of fish in tanks on SD −2 was 829.9±161.7 g.
Atlantic salmon post-smolts were infested once with sea lice using an experimental challenge model. About 50 copepodids (Lepeophtheirus salmonis) per fish were added to each tank on SD −17. During the study the water temperature varied between 8 and 12° C. The water oxygen saturation was consistently above 80% throughout the study.
Five treatment groups were randomly assigned to ten study tanks so that there were 2 tanks per treatment group. Study personnel were blinded as to the identity of the treatments for each tank.
Sea lice were counted four times during the study. All sampled fish were euthanized and lice counted. The baseline count occurred on SD −2 (with 10 fish per tank), corresponding to ˜160 degree days (15 d) post-infestation. The time was sufficient for lice development to the chalimus stage. Count 1 occurred on SD +8 (with 20 fish per tank) corresponding to ˜260 degree days (25 d) post infestation and 2 days post treatment. The time was sufficient for lice development into chalimus and pre-adult stages in the control tanks. Count 2 occurred on SD +18 (with 20 fish per tank) corresponding to ˜360 degree days (35 d) post infestation and 12 days post treatment. The time was sufficient for lice development into adult males and females in the control tanks. Count 3 occurred on SD +22 (with 20 fish per tank) corresponding to ˜400 degree days (39 d) post infestation and 16 days post treatment. The time was sufficient for lice development into adult males and females with no chalimus stages present in the control tanks.
Medicated feed was prepared by dry coating commercially available fish feed pellets with a premix containing the active ingredient to reach a content of about 1.6, 4.0. 8.0 and 19.9 mg/kg. The fish pellets were then coated with feed grade herring fish oil at an inclusion rate of about 0.75% w/w (7.5 g/kg feed) The consumption rate of the medicated feed was set to 0.628% body weight.
Treatment efficacy was computed for total number of sea lice/fish and total number of mobile life stages, i.e., preadult & adult sea lice/fish for each post-treatment sea lice counting occasion. For the total number of attached/fish, treatment efficacy was computed at the first count post-treatment. Percent efficacy was computed using Abbott's formula for each treatment group compared to control as follows:
[formula] where MC and MT are the arithmetic means of sea lice counts in the untreated control and S-roxapin-treated groups, respectively.
Treatments were considered efficacious when the percent efficacy was ≥90% for treated groups compared to untreated control groups.
The mean sea lice abundance was reported for different parasite life stages (attached, mobile, and total (attached and mobile together)) and computed as the number of lice on salmon divided by the number of sampled fish per tank. […]

[1] = 0.010 mg/kg/d in feed 7 d, 2 DPT
[2] = 0.010 mg/kg/d in feed 7 d, 12 DPT
[3] = 0.010 mg/kg/d in feed 7 d, 16 DPT
[4] = 0.025 mg/kg/d in feed 7 d, 2 DPT
[5] = 0.025 mg/kg/d in feed 7 d, 12 DPT
[6] = 0.025 mg/kg/d in feed 7 d, 16 DPT
[7] = 0.050 mg/kg/d in feed 7 d, 2 DPT
[8] = 0.050 mg/kg/d in feed 7 d, 12 DPT
[9] = 0.050 mg/kg/d in feed 7 d, 16 DPT
[10] = 0.125 mg/kg/d in feed 7 d, 2 DPT
[11] = 0.125 mg/kg/d in feed 7 d, 12 DPT
[12] = 0.125 mg/kg/d in feed 7 d, 16 DPT

C#CCNC(=O)CNC(=O)c1sc(C2=NO[C@@](c3cc(Cl)c(Cl)c(Cl)c3)(C(F)(F)F)C2)cc1C [S-roxapin, (S)-3-methyl-N-(2-oxo-2-(prop-2-yn-1-ylamino)ethyl)-5-(5-(3,4,5-trichlorophenyl)-5-(trifluoromethyl)-4,5-dihydroisoxazol-3-yl)thiophene-2-carboxamide]
Number of Attached Lice/Fish % Efficacy [1]: 96.2%
Number of Attached Lice/Fish Mean ± SD [1]: 0.1 ± 0.3 lice/fish
Number of Mobile Lice/Fish % Efficacy [1]: 89.1%
Number of Mobile Lice/Fish Mean ± SD [1]: 1.7 ± 2.2 lice/fish
Total Number of Lice/Fish % Efficacy [1]: 90.3%
Total Number of Lice/Fish Mean ± SD [1]: 1.8 ± 2.4 lice/fish
Number of Attached Lice/Fish Mean ± SD [2]: 0.0 ± 0.0 lice/fish
Number of Mobile Lice/Fish % Efficacy [2]: 94.1%
Number of Mobile Lice/Fish Mean ± SD [2]: 1.1 ± 3.0 lice/fish
Total Number of Lice/Fish % Efficacy [2]: 94.1%
Total Number of Lice/Fish Mean ± SD [2]: 1.1 ± 3.0 lice/fish
Number of Attached Lice/Fish Mean ± SD [3]: 0.0 ± 0.0 lice/fish
Number of Mobile Lice/Fish % Efficacy [3]: 97.7%
Number of Mobile Lice/Fish Mean ± SD [3]: 0.5 ± 0.7 lice/fish
Total Number of Lice/Fish % Efficacy [3]: 97.7%
Total Number of Lice/Fish Mean ± SD [3]: 0.5 ± 0.7 lice/fish
Number of Attached Lice/Fish % Efficacy [4]: 98.5%
Number of Attached Lice/Fish Mean ± SD [4]: 0.1 ± 0.1 lice/fish
Number of Mobile Lice/Fish % Efficacy [4]: 98.8%
Number of Mobile Lice/Fish Mean ± SD [4]: 0.2 ± 0.3 lice/fish
Total Number of Lice/Fish % Efficacy [4]: 98.8%
Total Number of Lice/Fish Mean ± SD [4]: 0.2 ± 0.3 lice/fish
Number of Attached Lice/Fish Mean ± SD [5]: 0.1 ± 0.2 lice/fish
Number of Mobile Lice/Fish % Efficacy [5]: 99.9%
Number of Mobile Lice/Fish Mean ± SD [5]: 0.0 ± 0.1 lice/fish
Total Number of Lice/Fish % Efficacy [5]: 99.5%
Total Number of Lice/Fish Mean ± SD [5]: 0.1 ± 0.2 lice/fish
Number of Attached Lice/Fish Mean ± SD [6]: 0.0 ± 0.0 lice/fish
Number of Mobile Lice/Fish % Efficacy [6]: 99.9%
Number of Mobile Lice/Fish Mean ± SD [6]: 0.0 ± 0.1 lice/fish
Total Number of Lice/Fish % Efficacy [6]: 99.9%
Total Number of Lice/Fish Mean ± SD [6]: 0.0 ± 0.1 lice/fish
Number of Attached Lice/Fish % Efficacy [7]: 92.3%
Number of Attached Lice/Fish Mean ± SD [7]: 0.3 ± 0.3 lice/fish
Number of Mobile Lice/Fish % Efficacy [7]: 99.7%
Number of Mobile Lice/Fish Mean ± SD [7]: 0.1 ± 0.1 lice/fish
Total Number of Lice/Fish % Efficacy [7]: 98.4%
Total Number of Lice/Fish Mean ± SD [7]: 0.3 ± 0.3 lice/fish
Number of Attached Lice/Fish Mean ± SD [8]: 0.0 ± 0.0 lice/fish
Number of Mobile Lice/Fish Mean ± SD [8]: 0.1 ± 0.2 lice/fish
Total Number of Lice/Fish % Efficacy [8]: 99.6%
Total Number of Lice/Fish Mean ± SD [8]: 0.1 ± 0.2 lice/fish
Number of Attached Lice/Fish Mean ± SD [9]: 0.0 ± 0.0 lice/fish
Number of Mobile Lice/Fish % Efficacy [9]: 99.7%
Number of Mobile Lice/Fish Mean ± SD [9]: 0.1 ± 0.2 lice/fish
Total Number of Lice/Fish % Efficacy [9]: 99.7%
Total Number of Lice/Fish Mean ± SD [9]: 0.1 ± 0.2 lice/fish
Number of Attached Lice/Fish % Efficacy [10]: 93.8%
Number of Attached Lice/Fish Mean ± SD [10]: 0.2 ± 0.3 lice/fish
Number of Mobile Lice/Fish % Efficacy [10]: 99.8%
Number of Mobile Lice/Fish Mean ± SD [10]: 0.0 ± 0.1 lice/fish
Total Number of Lice/Fish % Efficacy [10]: 98.8%
Total Number of Lice/Fish Mean ± SD [10]: 0.2 ± 0.4 lice/fish
Number of Attached Lice/Fish Mean ± SD [11]: 0.0 ± 0.1 lice/fish
Number of Mobile Lice/Fish % Efficacy [11]: 100.0%
Number of Mobile Lice/Fish Mean ± SD [11]: 0.0 ± 0.0 lice/fish
Total Number of Lice/Fish % Efficacy [11]: 99.9%
Total Number of Lice/Fish Mean ± SD [11]: 0.0 ± 0.1 lice/fish
Number of Attached Lice/Fish Mean ± SD [12]: 0.1 ± 0.2 lice/fish
Number of Mobile Lice/Fish % Efficacy [12]: 99.9%
Number of Mobile Lice/Fish Mean ± SD [12]: 0.1 ± 0.2 lice/fish
Total Number of Lice/Fish % Efficacy [12]: 99.6%
Total Number of Lice/Fish Mean ± SD [12]: 0.1 ± 0.2 lice/fish
efficacy compared with the lowest dosage (0.010 mg/kg/d) (dosages of 0.025, 0.050 and 0.125 mg/kg/d in medicated feed over 7 consecutive days): significantly higher efficacy
observed minimum efficacious dosage relative to U.S. Pat. No. 9,920,037 (1.0 mg/kg/d) (medicated feed over 7 consecutive days to salmon, provisionally concluded): 20-40 times lower
